We go through 15 compounds from PubChem BioAssay (NCI).

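Results reflect a 48-hour exposure of cells in 96-well plates to compound at five concentrations. Here, GI50 denotes the concentration required for 50% inhibition of growth. Definition used: TGI = concentration required for complete inhibition of growth.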 A value given as a limit tells only on which side of the number the result lay.

Some test systems named below: A498 renal; HL-60(TB) leukemia; NCI-H522 lung; K-562 leukemia; NCI-H460 lung; LOX IMVI melanoma; OVCAR-8 ovarian; OVCAR-3 ovarian; SF-295 CNS.
Common to all, as to test: NCI tumour cell line growth inhibition, 48 h

With `Nc1ccccc1S(=O)(=O)N(CC(=O)O)c1ccccc1`, the TGI in the experiment with A498 renal, in the experiment with HL-60(TB) leukemia, in the experiment with NCI-H522 lung, in the experiment on K-562 leukemia, in the experiment on NCI-H460 lung and in the experiment with LOX IMVI melanoma was above 100 µM throughout. In the experiment on OVCAR-8 ovarian, this compound had a TGI above 100 µM.
`CCC[CH2][Sn]([CH2]CCC)([S]c1cccc2cccnc12)[S]c1cccc2cccnc12`: the GI50 was 0.254 µM in the experiment with A498 renal; 0.0642 µM in the experiment on K-562 leukemia; 0.0703 µM in the experiment on OVCAR-3 ovarian; 0.151 µM with NCI-H460 lung; 0.175 µM in the experiment on LOX IMVI melanoma; 0.283 µM in the experiment with OVCAR-8 ovarian. Moreover, in the experiment with SF-295 CNS, the GI50 was 0.404 µM. Also, the TGI is 0.6 µM with A498 renal; 0.611 µM in the experiment on K-562 leukemia; 0.228 µM with OVCAR-3 ovarian; 0.356 µM in the experiment with NCI-H460 lung; 0.359 µM in the experiment with LOX IMVI melanoma; 1.16 µM in the experiment on OVCAR-8 ovarian. The compound also registered a TGI in the experiment with SF-295 CNS of 1.39 µM.
On to `C1=C2/CC[C@H](Sc3ccccc3)C2C2(CCCCC/1)OCCO2` (some centres not stated), for which the TGI was above 100 µM in the experiment on HL-60(TB) leukemia; above 100 µM in the experiment on K-562 leukemia; 72.1 µM with OVCAR-3 ovarian; 73.9 µM in the experiment on NCI-H460 lung; 28.9 µM in the experiment on LOX IMVI melanoma; above 100 µM with OVCAR-8 ovarian. The TGI in the experiment with SF-295 CNS was above 100 µM.
Regarding `O=C(O)CCNCCCNCCC(=O)O`, the TGI in the experiment on A498 renal, in the experiment on HL-60(TB) leukemia, in the experiment with NCI-H522 lung, in the experiment on K-562 leukemia, in the experiment with OVCAR-3 ovarian and with NCI-H460 lung was above 100 µM each time. For the same compound, the TGI in the experiment with LOX IMVI melanoma, in the experiment on OVCAR-8 ovarian and in the experiment on SF-295 CNS was above 100 µM each time.
Regarding `Cc1c(C(=O)C/C(=N/NC(=O)c2ccccc2O)C(=O)Nc2ccccc2C(C)C)[n+](=O)c2ccccc2n1[O-]`, the TGI is above 100 µM in the experiment on A498 renal; 38.3 µM with HL-60(TB) leukemia; 65.8 µM in the experiment with NCI-H522 lung; above 100 µM in the experiment with K-562 leukemia; above 100 µM in the experiment with OVCAR-3 ovarian; above 100 µM in the experiment on NCI-H460 lung. In addition, the TGI in the experiment on LOX IMVI melanoma, in the experiment with OVCAR-8 ovarian and in the experiment on SF-295 CNS was above 100 µM in each case.
Turning to `COC(=O)/C(C#N)=C1\NC(=O)c2ccccc21`, the TGI with A498 renal, with HL-60(TB) leukemia, in the experiment on NCI-H522 lung, in the experiment on K-562 leukemia, with OVCAR-3 ovarian and in the experiment with NCI-H460 lung was above 100 µM throughout. For the same compound, the TGI in the experiment with LOX IMVI melanoma, in the experiment with OVCAR-8 ovarian and in the experiment on SF-295 CNS was above 100 µM each time.
With `CNC(=S)OCCC(C)CCCC(C)C` (configuration not stated), the TGI in the experiment with A498 renal was 30 µM; in the experiment with HL-60(TB) leukemia, 23.6 µM; in the experiment on K-562 leukemia, 30.9 µM; in the experiment on NCI-H460 lung it was 35.2 µM; in the experiment on LOX IMVI melanoma, 26.2 µM; in the experiment on OVCAR-8 ovarian, 31.5 µM. In the experiment with SF-295 CNS, this compound gave a TGI of 36 µM.
For `CCCC1C(=O)CCc2c(OC)ccc(OC)c21` (configuration not stated), the TGI in the experiment with A498 renal, in the experiment with HL-60(TB) leukemia, with K-562 leukemia, with OVCAR-3 ovarian, in the experiment on NCI-H460 lung and in the experiment on LOX IMVI melanoma was above 100 µM each time. Moreover, the TGI in the experiment on OVCAR-8 ovarian and in the experiment on SF-295 CNS was above 100 µM each time.
As to `COC(=O)C1(C(C)C)CCc2c(OC)ccc(OC)c2C1=O` (configuration not stated), the TGI in the experiment with A498 renal, in the experiment with HL-60(TB) leukemia, in the experiment on NCI-H522 lung, with K-562 leukemia, in the experiment with OVCAR-3 ovarian and in the experiment on NCI-H460 lung was above 100 µM each time. Also, the TGI in the experiment on LOX IMVI melanoma, with OVCAR-8 ovarian and in the experiment with SF-295 CNS was above 100 µM throughout.
For the compound `Cc1cc(N(CCC#N)CCC#N)ccc1N=Nc1ccc(S(N)(=O)=O)cc1`, the TGI in the experiment with A498 renal, in the experiment with HL-60(TB) leukemia, in the experiment on NCI-H522 lung, in the experiment on K-562 leukemia, in the experiment on OVCAR-3 ovarian and in the experiment on LOX IMVI melanoma was above 100 µM in each case. Further, the TGI with OVCAR-8 ovarian and with SF-295 CNS was above 100 µM each time.
As for `CCOC(=O)C(C)(C)Oc1ccc2c(-c3ccccc3)cc(=O)oc2c1`, the TGI with A498 renal was above 100 µM; with HL-60(TB) leukemia, 63.8 µM; in the experiment on K-562 leukemia, above 100 µM; in the experiment with OVCAR-3 ovarian, above 100 µM; with NCI-H460 lung, above 100 µM; in the experiment on LOX IMVI melanoma, 49.4 µM. For the same compound, the TGI in the experiment on OVCAR-8 ovarian and with SF-295 CNS was above 100 µM in each case.
As for `CCCCCCCCCCCC(=O)OCCOCCOCCOCCOCCOCc1ccccc1`, the TGI with A498 renal, in the experiment on HL-60(TB) leukemia, with NCI-H522 lung, in the experiment with K-562 leukemia, in the experiment with OVCAR-3 ovarian and with NCI-H460 lung was above 100 µM each time. In addition, the TGI in the experiment with LOX IMVI melanoma, in the experiment with OVCAR-8 ovarian and in the experiment on SF-295 CNS was above 100 µM throughout.
With `O=C(CCc1nc(=S)[nH][nH]1)Nc1ccc(Cl)c(Cl)c1`, the TGI in the experiment on A498 renal is above 100 µM; in the experiment with HL-60(TB) leukemia, above 100 µM; in the experiment with NCI-H522 lung, 72.1 µM; in the experiment on K-562 leukemia, above 100 µM; in the experiment with OVCAR-3 ovarian, above 100 µM; with NCI-H460 lung it was above 100 µM. The TGI with OVCAR-8 ovarian and in the experiment on SF-295 CNS was above 100 µM each time.
`Cc1cc(NS(=O)(=O)c2ccc(Nc3c4ccccc4nc4c(C(=O)N5CCN(CCOS(C)(=O)=O)CC5)cccc34)cc2)no1`: the TGI in the experiment on A498 renal, in the experiment with HL-60(TB) leukemia, with K-562 leukemia, in the experiment with OVCAR-3 ovarian, in the experiment on NCI-H460 lung and with OVCAR-8 ovarian was above 100 µM each time. The TGI in the experiment with SF-295 CNS was above 100 µM.
As to `Cc1nc2c(ccc3ncccc32)[nH]1`, the TGI with HL-60(TB) leukemia, with NCI-H522 lung, in the experiment with K-562 leukemia, in the experiment with OVCAR-3 ovarian, in the experiment on NCI-H460 lung and in the experiment with LOX IMVI melanoma was above 100 µM each time. In addition, the TGI in the experiment with OVCAR-8 ovarian and in the experiment on SF-295 CNS was above 100 µM in each case.
